Test results reported in ChEMBL document CHEMBL5465560, “Selectivity Literature for EUbOPEN Chemogenomic Library” (2024).
One block for each compound: values may come before it.

What was measured:
[1] = molecular target: Serine/threonine-protein kinase MARK2 (Homo sapiens) (UniProt Q7KZI7); assay: Selectivity interaction (SelectScreen profiling (Invitrogen)) EUB0000607a MARK2; details: at 2 µM
[2] = molecular target: Serine/threonine-protein kinase 38 (Homo sapiens) (UniProt Q15208); assay: Selectivity interaction (ActivX KiNativ screen (kinase selectivity in THP-1 cell lysates)) EUB0000639a STK38; type: subcellular; details: lysate, at 0.01 µM
[3] = molecular target: Leucine-rich repeat serine/threonine-protein kinase 2 (Homo sapiens, UniProt Q5S007); assay: Selectivity interaction (Kinase panel (Invitrogen)) EUB0000639a LRRK2; details: at 200 nM
[4] = molecular target: Protein arginine N-methyltransferase 1 (Homo sapiens, UniProt Q99873); assay: Selectivity interaction (Methyltransferase screen (Scintillation proximity assays)) EUB0000255b PRMT1
[5] = molecular target: T1, Serine/threonine-protein kinase BRSK2 (Homo sapiens) (UniProt Q8IWQ3); details: at 10 µM
T1 sequence (whole entry): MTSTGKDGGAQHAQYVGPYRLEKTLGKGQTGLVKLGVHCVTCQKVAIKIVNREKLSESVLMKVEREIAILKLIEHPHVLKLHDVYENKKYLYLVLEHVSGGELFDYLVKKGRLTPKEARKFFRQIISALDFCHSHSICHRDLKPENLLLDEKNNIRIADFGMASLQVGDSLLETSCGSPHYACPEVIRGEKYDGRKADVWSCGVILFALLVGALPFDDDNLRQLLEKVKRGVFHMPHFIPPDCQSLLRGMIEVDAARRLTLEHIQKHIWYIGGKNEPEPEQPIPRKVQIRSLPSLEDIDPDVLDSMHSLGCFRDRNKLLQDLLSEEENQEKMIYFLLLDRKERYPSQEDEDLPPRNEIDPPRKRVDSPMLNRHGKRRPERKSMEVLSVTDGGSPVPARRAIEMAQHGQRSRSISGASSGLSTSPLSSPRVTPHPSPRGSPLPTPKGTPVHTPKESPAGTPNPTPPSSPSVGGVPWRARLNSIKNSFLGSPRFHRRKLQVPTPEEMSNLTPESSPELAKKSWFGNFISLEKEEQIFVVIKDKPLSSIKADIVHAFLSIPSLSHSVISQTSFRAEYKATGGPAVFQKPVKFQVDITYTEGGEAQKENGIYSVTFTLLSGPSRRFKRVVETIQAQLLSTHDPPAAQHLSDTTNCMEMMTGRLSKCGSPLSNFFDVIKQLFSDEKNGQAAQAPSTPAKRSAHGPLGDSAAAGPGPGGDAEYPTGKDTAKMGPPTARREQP

[6] = molecular target: Proto-oncogene tyrosine-protein kinase Src (Homo sapiens, UniProt P12931); assay: Selectivity interaction (KinomeScan (DiscoverX)) EUB0001049a SRC; details: at 1 µM
[7] = molecular target: T2, Dual specificity mitogen-activated protein kinase kinase 6 (Homo sapiens) (UniProt P52564); assay: Selectivity interaction (Kinase panel (DSF assay)) EUB0001558a MAP2K6
T2 sequence (whole entry): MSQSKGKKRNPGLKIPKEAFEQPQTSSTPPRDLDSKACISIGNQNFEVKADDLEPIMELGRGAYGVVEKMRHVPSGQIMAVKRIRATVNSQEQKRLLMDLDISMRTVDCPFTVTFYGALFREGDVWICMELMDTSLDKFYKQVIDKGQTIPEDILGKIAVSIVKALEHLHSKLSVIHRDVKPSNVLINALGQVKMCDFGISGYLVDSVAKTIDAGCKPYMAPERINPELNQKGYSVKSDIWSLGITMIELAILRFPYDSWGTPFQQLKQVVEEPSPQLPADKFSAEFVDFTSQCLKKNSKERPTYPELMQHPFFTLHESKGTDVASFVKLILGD

[8] = molecular target: Serine/threonine-protein kinase pim-2 (Homo sapiens, UniProt Q9P1W9); assay: Selectivity interaction (KinomeScan (DiscoverX)) EUB0001079a PIM2; details: at 1 µM
[9] = molecular target: T3, SNF-related serine/threonine-protein kinase (Homo sapiens) (UniProt Q9NRH2); assay: Selectivity interaction (KinomeScan (DiscoverX)) EUB0000229b SNRK; details: at 10 µM
T3 sequence (whole entry): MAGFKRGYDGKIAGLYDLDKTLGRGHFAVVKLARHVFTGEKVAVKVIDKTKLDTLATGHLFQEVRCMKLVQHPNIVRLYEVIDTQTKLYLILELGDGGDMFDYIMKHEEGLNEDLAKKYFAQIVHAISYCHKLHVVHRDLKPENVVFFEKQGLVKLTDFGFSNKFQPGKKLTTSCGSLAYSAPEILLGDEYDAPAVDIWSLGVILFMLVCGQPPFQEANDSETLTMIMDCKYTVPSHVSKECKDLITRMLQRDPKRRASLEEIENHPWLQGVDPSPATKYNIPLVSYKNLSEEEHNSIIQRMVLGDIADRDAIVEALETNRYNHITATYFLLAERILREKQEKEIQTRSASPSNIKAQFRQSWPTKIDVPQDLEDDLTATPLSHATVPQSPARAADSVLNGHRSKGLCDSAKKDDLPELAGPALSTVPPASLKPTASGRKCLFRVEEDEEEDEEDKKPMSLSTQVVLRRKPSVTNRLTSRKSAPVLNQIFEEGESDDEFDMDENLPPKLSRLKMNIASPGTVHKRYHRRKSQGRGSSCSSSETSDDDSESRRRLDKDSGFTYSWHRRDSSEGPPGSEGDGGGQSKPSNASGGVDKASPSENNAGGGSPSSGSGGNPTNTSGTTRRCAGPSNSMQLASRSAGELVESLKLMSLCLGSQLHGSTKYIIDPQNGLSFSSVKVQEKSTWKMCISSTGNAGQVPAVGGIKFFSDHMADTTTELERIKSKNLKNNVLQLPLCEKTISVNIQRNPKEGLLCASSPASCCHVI

[10] = molecular target: Tyrosine-protein kinase JAK2 (Homo sapiens, UniProt O60674); assay: Selectivity interaction (Kinase panel (Carna Biosciences)) EUB0001542aTs JAK2; details: at 1 µM
[11] = molecular target: Serine/threonine-protein kinase PAK 6 (Homo sapiens) (UniProt Q9NQU5); assay: Selectivity interaction (KinomeScan (DiscoverX)) EUB0001619a PAK6; details: at 1 µM
Sequence of Serine/threonine-protein kinase PAK 6 (Homo sapiens) (Q9NQU5 whole entry, looked up): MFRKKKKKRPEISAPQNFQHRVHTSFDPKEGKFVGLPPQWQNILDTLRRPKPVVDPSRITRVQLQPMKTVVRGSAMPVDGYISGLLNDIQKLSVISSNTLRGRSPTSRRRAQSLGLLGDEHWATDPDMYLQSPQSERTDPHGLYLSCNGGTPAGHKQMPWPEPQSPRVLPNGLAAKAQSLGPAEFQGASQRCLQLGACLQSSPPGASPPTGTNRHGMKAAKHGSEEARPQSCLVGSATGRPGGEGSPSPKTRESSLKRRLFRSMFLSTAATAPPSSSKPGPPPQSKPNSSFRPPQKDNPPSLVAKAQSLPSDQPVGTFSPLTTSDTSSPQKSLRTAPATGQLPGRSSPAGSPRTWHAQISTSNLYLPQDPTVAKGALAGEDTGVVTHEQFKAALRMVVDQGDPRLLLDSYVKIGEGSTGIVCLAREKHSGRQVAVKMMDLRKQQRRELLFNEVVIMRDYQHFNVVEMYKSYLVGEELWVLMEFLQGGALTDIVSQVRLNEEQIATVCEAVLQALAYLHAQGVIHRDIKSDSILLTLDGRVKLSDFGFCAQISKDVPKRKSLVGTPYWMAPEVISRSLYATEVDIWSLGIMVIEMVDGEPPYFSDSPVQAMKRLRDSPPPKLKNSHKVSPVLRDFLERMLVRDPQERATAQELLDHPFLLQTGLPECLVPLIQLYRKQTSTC

Sequence of Protein arginine N-methyltransferase 1 (Q99873 whole entry, looked up): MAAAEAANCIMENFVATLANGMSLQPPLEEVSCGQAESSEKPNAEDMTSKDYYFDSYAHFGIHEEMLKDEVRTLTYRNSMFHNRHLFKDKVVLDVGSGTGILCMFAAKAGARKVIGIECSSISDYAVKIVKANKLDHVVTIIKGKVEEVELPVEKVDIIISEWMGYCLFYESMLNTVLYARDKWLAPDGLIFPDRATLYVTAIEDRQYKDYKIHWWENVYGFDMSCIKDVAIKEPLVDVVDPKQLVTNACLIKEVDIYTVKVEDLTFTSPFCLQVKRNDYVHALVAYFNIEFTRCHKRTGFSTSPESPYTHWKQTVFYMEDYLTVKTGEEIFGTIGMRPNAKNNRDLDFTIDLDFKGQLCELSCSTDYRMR
Sequence of Proto-oncogene tyrosine-protein kinase Src (P12931 2-536 limits assumed): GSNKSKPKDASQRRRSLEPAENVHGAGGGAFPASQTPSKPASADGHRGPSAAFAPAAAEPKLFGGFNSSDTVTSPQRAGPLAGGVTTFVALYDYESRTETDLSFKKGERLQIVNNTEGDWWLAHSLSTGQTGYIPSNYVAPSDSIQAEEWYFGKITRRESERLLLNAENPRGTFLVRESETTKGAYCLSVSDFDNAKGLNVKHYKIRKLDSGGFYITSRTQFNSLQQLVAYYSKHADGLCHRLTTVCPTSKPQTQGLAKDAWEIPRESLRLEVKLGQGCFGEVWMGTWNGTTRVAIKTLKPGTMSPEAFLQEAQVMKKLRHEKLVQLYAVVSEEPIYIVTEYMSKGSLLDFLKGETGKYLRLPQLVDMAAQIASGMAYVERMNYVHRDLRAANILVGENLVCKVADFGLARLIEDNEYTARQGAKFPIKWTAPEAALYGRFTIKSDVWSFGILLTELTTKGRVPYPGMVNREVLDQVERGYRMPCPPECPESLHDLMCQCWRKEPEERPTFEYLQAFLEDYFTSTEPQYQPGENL
Sequence of Serine/threonine-protein kinase pim-2 (Q9P1W9 whole entry, looked up): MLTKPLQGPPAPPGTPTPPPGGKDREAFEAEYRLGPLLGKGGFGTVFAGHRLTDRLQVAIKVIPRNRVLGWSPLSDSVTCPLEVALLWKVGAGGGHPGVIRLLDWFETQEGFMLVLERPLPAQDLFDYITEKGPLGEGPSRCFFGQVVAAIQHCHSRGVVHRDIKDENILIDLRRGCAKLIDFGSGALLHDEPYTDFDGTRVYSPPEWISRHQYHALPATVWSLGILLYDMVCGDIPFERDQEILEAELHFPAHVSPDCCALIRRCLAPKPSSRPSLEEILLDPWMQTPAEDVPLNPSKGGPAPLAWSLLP
Sequence of Serine/threonine-protein kinase MARK2 (Homo sapiens) (Q7KZI7 whole entry): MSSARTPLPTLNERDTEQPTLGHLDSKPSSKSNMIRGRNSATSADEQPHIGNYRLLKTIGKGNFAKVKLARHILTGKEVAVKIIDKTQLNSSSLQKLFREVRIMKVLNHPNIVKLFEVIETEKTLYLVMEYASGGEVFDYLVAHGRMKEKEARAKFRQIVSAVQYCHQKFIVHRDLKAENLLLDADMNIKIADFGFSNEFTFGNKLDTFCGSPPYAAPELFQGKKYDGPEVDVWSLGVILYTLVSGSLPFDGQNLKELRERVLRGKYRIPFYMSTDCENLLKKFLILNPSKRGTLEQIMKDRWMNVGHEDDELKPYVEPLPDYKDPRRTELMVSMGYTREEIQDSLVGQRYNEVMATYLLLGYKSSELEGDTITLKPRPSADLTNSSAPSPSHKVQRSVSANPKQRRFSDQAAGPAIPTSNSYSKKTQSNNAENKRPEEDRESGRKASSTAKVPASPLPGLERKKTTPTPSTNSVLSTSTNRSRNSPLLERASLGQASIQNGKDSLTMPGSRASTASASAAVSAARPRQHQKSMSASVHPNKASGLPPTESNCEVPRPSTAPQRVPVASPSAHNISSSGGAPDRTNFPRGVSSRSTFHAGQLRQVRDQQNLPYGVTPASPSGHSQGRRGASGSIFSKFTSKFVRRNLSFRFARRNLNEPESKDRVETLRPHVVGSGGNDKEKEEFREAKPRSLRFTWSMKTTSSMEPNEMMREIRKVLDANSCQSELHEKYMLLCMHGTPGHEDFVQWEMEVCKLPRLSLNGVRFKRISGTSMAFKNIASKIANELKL
Sequence of Tyrosine-protein kinase JAK2 (O60674 whole entry): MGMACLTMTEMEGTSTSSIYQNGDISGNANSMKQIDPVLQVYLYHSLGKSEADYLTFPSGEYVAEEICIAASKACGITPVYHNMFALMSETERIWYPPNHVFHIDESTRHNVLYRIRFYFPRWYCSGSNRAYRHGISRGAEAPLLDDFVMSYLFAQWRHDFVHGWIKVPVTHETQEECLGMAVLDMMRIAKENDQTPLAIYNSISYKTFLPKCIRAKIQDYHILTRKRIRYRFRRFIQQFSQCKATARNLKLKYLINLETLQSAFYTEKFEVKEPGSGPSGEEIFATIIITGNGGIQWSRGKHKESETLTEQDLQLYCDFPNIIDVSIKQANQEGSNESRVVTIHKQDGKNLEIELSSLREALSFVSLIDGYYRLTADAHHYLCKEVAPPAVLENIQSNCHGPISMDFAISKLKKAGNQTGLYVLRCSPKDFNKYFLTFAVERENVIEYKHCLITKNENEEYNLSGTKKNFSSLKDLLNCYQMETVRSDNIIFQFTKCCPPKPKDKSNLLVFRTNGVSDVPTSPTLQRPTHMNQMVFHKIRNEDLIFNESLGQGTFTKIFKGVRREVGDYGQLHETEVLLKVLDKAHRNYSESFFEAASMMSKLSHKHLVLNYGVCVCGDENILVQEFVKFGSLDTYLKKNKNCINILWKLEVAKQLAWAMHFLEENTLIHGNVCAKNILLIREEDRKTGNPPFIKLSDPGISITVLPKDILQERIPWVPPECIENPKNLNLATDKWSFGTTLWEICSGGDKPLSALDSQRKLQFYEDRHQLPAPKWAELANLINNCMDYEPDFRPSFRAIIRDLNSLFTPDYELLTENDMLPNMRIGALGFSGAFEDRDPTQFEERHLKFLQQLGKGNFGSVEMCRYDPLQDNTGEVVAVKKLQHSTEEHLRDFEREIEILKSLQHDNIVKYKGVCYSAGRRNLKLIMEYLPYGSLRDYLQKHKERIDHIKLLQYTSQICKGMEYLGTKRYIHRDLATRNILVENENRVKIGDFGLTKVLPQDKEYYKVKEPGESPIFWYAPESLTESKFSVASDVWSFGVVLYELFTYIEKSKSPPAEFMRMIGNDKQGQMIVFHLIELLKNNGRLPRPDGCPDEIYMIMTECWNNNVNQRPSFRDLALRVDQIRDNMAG
Sequence of Serine/threonine-protein kinase 38 (Homo sapiens) (Q15208 2-465 limits assumed): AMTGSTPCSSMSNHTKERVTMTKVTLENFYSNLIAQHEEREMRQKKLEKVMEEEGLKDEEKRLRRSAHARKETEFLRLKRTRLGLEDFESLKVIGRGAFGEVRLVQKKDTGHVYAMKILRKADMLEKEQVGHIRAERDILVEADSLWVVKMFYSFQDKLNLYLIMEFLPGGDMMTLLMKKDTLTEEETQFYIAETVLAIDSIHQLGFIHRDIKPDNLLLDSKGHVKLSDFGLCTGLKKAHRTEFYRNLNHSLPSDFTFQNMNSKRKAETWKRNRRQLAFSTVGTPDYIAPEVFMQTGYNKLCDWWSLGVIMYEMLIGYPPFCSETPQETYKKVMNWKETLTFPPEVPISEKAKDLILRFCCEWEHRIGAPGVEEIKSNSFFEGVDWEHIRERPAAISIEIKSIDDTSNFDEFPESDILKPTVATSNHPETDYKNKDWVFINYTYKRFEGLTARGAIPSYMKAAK

Structure (SMILES): CNC(=O)Nc1ccc(-c2nc(N3CC4CCC(C3)O4)c3cnn(C4CCC5(CC4)OCCO5)c3n2)cc1
% of inhibition [1]: 12%

% of inhibition [2]: 1.5%
% of inhibition [3]: 75.5%
Structure (SMILES): CC[C@@H]1[C@H](F)C(=O)N[C@@H]1COc1nccc2cc(C(N)=O)c(OC)cc12 [ZIMLOVISERTIB]

Structure (SMILES): COCCN1CCC(c2cc(CN(C)C(=O)c3cccc(Oc4ccccc4)c3)ccn2)CC1
% activity ([4]; at 1 µM): 82%
% activity ([4]; at 10 µM): > 90%

Structure (SMILES): COCC(=O)NC/C=C/c1ccc2ncnc(Nc3ccc(Oc4ccc(C)nc4)c(C)c3)c2c1 [CP-724714]
% of control [5]: 100%

Structure (SMILES): COc1cc(Nc2nc(C)cc(-c3cnn4nc(OC)ccc34)n2)cc(C(F)(F)F)c1
% of control [6]: 100%

Structure (SMILES): CC(C)(O)[C@H](F)CN1Cc2cc(NC(=O)c3cnn4cccnc34)c(N3CCOCC3)cc2C1=O
dTM [7]: 0.3 K

Structure (SMILES): Nc1cnc(N2CCc3cc(S(=O)(=O)Nc4c(F)cc(Cl)cc4F)cc(N4CCCC4=O)c32)nc1 [TP-020n]
% of control [8]: 85%

Structure (SMILES): COc1cc(N(C)c2ccnc3ccc(C(F)(F)F)cc23)cc(OC)c1OC
% binding [9]: 53%

% of inhibition [10]: 94%
Structure (SMILES): Cn1cc(Nc2nccc(N3CC4CCC(C3)N4C(=O)[C@@H]3CC3(F)F)n2)cn1

Structure (SMILES): N#Cc1cccc(-c2c[nH]c3ncnc(N4CCOCC4)c23)c1
% of control [11]: 78%
